Results: ChEMBL document CHEMBL1770145, “Synthesis of 5(6)-dihydro-OSW-1 analogs bearing three kinds of disaccharides linking at 15-hydroxy and their antitumor activities” (Bioorg Med Chem Lett, 2011)

Key:
Format in all cases: functional, cell-based
KETR3 = test: Cytotoxicity against human Ketr3 cells by MTT assay
Bel-7402 [1] = test: Cytotoxicity against human Bel7402 cells by MTT assay
HCT-8 = test: Cytotoxicity against human HCT8 cells by MTT assay
A2780 = test: Cytotoxicity against human A2780 cells by MTT assay
MCF7 [2] = test: Cytotoxicity against human MCF7 cells by MTT assay
A549 = test: Cytotoxicity against human A549 cells by MTT assay
BGC-823 = test: Cytotoxicity against human BGC823 cells by MTT assay
AGS = test: Cytotoxicity against human AGS cells
Bel-7402 [3] = test: Cytotoxicity against human Bel7402 cells
MCF7 [4] = test: Cytotoxicity against human MCF7 cells

Row | Structure (SMILES) | IC50 (KETR3) | IC50 (Bel-7402 [1]) | IC50 (HCT-8) | IC50 (A2780) | IC50 (MCF7 [2]) | IC50 (A549) | IC50 (BGC-823) | IC50 (AGS) | IC50 (Bel-7402 [3]) | IC50 (MCF7 [4])
1 | COc1ccc(C(=O)O[C@H]2[C@H](O[C@H]3CO[C@@H](O[C@H]4CC([C@H](C)C(=O)CC[C@@H](C)CO)[C@@]5(C)CC[C@H]6[C@@H](CC[C@H]7C[C@@H](O)CC[C@@]76C)[C@H]45)[C@H](OC(C)=O)[C@H]3O)OC[C@@H](O)[C@@H]2O)cc1 (stereo partly specified) | > 10 µM | > 10 µM | > 10 µM | > 10 µM | > 10 µM | > 10 µM | > 10 µM | – | – | –
2 | COc1ccc(C(=O)O[C@H]2[C@H](O[C@@H]3[C@@H](OC(C)=O)[C@H](O[C@H]4CC([C@H](C)C(=O)CC[C@@H](C)CO)[C@@]5(C)CC[C@H]6[C@@H](CC[C@H]7C[C@@H](O)CC[C@@]76C)[C@H]45)OC[C@@H]3O)OC[C@@H](O)[C@@H]2O)cc1 (stereo partly specified) | > 10 µM | > 10 µM | > 10 µM | > 10 µM | > 10 µM | > 10 µM | > 10 µM | – | – | –
3 | C[C@@H](CO)CCC(=O)[C@@H](C)C1C[C@@H](O[C@H]2O[C@H](CO)[C@@H](O)[C@H](O)[C@H]2O[C@@H]2O[C@@H](C)[C@H](O)[C@@H](O)[C@H]2O)[C@H]2[C@@H]3CC[C@H]4C[C@@H](O)CC[C@]4(C)[C@H]3CC[C@]12C (stereo partly specified) | > 10 µM | > 10 µM | > 10 µM | > 10 µM | > 10 µM | > 10 µM | > 10 µM | – | – | –
4 | C[C@@H](CO)CCC(=O)[C@@H](C)C1C[C@@H](O[C@@H]2O[C@H](CO)[C@@H](O)[C@H](O)[C@H]2O[C@@H]2O[C@@H](C)[C@H](O)[C@@H](O)[C@H]2O)[C@H]2[C@@H]3CC[C@H]4C[C@@H](O)CC[C@]4(C)[C@H]3CC[C@]12C (stereo partly specified) | > 10 µM | > 10 µM | > 10 µM | > 10 µM | > 10 µM | > 10 µM | > 10 µM | – | – | –
5 | COc1ccc(C(=O)O[C@H]2[C@H](O[C@H]3CO[C@@H](O[C@@H]4CC([C@H](C)C(=O)CC[C@@H](C)CO)[C@@]5(C)CC[C@H]6[C@@H](CC[C@H]7C[C@@H](O)CC[C@@]76C)[C@H]45)[C@H](OC(C)=O)[C@H]3O)OC[C@@H](O)[C@@H]2O)cc1 (stereo partly specified) | > 10 µM | > 10 µM | > 10 µM | > 10 µM | > 10 µM | > 10 µM | > 10 µM | – | – | –
6 | COc1ccc(C(=O)O[C@H]2[C@H](O[C@@H]3[C@@H](OC(C)=O)[C@H](O[C@@H]4CC([C@H](C)C(=O)CC[C@@H](C)CO)[C@@]5(C)CC[C@H]6[C@@H](CC[C@H]7C[C@@H](O)CC[C@@]76C)[C@H]45)OC[C@@H]3O)OC[C@@H](O)[C@@H]2O)cc1 (stereo partly specified) | 0.1 µM | 0.522 µM | 0.1 µM | 0.545 µM | 0.499 µM | 0.843 µM | 0.283 µM | – | – | –
7 | COc1ccc(C(=O)O[C@H]2[C@H](O[C@@H]3[C@@H](OC(C)=O)[C@H](O[C@H]4C[C@H]5[C@@H]6CCC7C[C@@H](O)CC[C@]7(C)[C@H]6CC[C@]5(C)[C@@]4(O)[C@H](C)C(=O)CCC(C)C)OC[C@@H]3O)OC[C@@H](O)[C@@H]2O)cc1 (stereo partly specified) | – | – | – | – | – | – | – | 0.71 µM | 0.025 µM | 0.029 µM
8 | C[C@@H](CO)CCC(=O)[C@@H](C)C1C[C@H](O[C@H]2O[C@H](CO)[C@@H](O)[C@H](O)[C@H]2O[C@@H]2O[C@@H](C)[C@H](O)[C@@H](O)[C@H]2O)[C@H]2[C@@H]3CC[C@H]4C[C@@H](O)CC[C@]4(C)[C@H]3CC[C@]12C (stereo partly specified) | > 10 µM | > 10 µM | > 10 µM | > 10 µM | > 10 µM | > 10 µM | > 10 µM | – | – | –
9 | C[C@@H](CO)CCC(=O)[C@@H](C)C1C[C@H](O[C@@H]2O[C@H](CO)[C@@H](O)[C@H](O)[C@H]2O[C@@H]2O[C@@H](C)[C@H](O)[C@@H](O)[C@H]2O)[C@H]2[C@@H]3CC[C@H]4C[C@@H](O)CC[C@]4(C)[C@H]3CC[C@]12C (stereo partly specified) | > 10 µM | > 10 µM | > 10 µM | > 10 µM | > 10 µM | > 10 µM | > 10 µM | – | – | –
10 | C[C@@H]1CC[C@@]2(OC1)O[C@H]1C[C@H]3[C@@H]4CC=C5C[C@@H](O[C@@H]6O[C@H](CO)[C@@H](O[C@@H]7O[C@@H](C)[C@H](O)[C@@H](O)[C@H]7O)[C@H](O)[C@H]6O[C@@H]6O[C@@H](C)[C@H](O)[C@@H](O)[C@H]6O)CC[C@]5(C)[C@H]4CC[C@]3(C)[C@H]1[C@@H]2C [DIOSCIN] | 0.447 µM | 0.93 µM | 0.351 µM | 0.581 µM | 0.879 µM | 0.454 µM | 0.268 µM | – | – | –
